According to US9271981B2, “Pyrrolo[2,3-D]pyrimidine compounds” (Zoetis Services LLC, priority 2008, dated 2016):
pIC50: −log10 of the molar value.

What was measured:
[1] = system: T-cell proliferation in canine whole blood; assay: Canine in vitro T-cell Proliferation Assay; type: cell-based; details: Canis lupus familiaris, ConA + canine IL-2, tritiated thymidine
Protocol: Methods: Canine whole blood was collected in sodium heparin tubes from 29 beagle dogs and 23 mixed breed dogs. Whole blood (20 μL) was plated in 96-well plates (Costar 3598) with 180 μL of medium (RPMI 1640, Gibco #21870-076, with 1% heat inactivated fetal bovine serum, Gibco #10082-39, 292 μg/ml L-glutamine, Gibco #250030-081, 100 u/ml penicillin and 100 μg streptomycin per ml, Gibco #15140-122) containing vehicle control or test compound (0.001 to 10 μM), concanavalin A (ConA; 1 μg/ml, Sigma C5275), and canine interleukin-2 (IL-2; 50 ng/ml, R&D Systems 1815-CL/CF). Wells containing whole blood, medium with vehicle control and no ConA or IL-2 were used as background controls. Plates were incubated at 37° C. for 48 hours. Tritiated thymidine, 0.4 μCi/well (Perkin Elmer, Net027A-005MC), was added for 20 additional hours. Plates were frozen and then thawed, washed and filtered using a Brandel MLR-96 cell harvester and prewet filter mats (Wallac 1205-401, Perkin Elmer). Filters were dried at 60° C. for one hour (Precision 16EG convection oven) and placed into filter sample bags (Wallac 1205-411, Perkin Elmer) with 10 mL of scintillant (Wallac 1205-440, Perkin Elmer). Sealed filters were counted on a LKB Wallac 1205 Betaplate liquid scintillation counter. Data were collected via Gterm Betaplate program v1.1 (Wallac copyright 1989-1990) and transformed into percent inhibition, calculated using the following formula: […]

flea allergic dogs = assay: Reducing Flea-associated Pruritus and Dermatitis Assay; type: in vivo; details: for pruritus as compared to placebo (seconds of pruritus per 4 hour recording): 10% level of significance
Protocol: Twenty eight male and female dogs of mixed breeds ranging in weight from 5-35 kg and greater than one year of age were infested with approximately 100 unfed adult cat fleas (Ctenocephalides felis) 14 days prior to the start of dosing and reinfested with 30 fleas per dog every 4 days throughout the study. Seven days before dosing, twenty four dogs were randomized into three different treatment groups, placebo, 0.5 mg/kg or 0.25 mg/kg of the compound of Example 1b, based on visual analog scale (VAS) scores for skin lesions. Treatments were given orally twice a day for 28 days, and pruritic behavior as well as erythema and skin lesions were was assessed during the study. Pruritic behavior was recorded by placing dogs into pens with video recording capability, and recording their activity over 4 hours. Pruritic activity was quantitated by determining how many seconds the dogs spent scratching. Skin lesions were recorded by image capture of abdominal, inguinal region and the severity ranked according to a visual analog scale (VAS).
Video captured elapsed time of pruritic behavior was analyzed using a mixed linear model for repeated measures. The model included fixed effects of treatment and day of study and the interaction of treatment and day of study. Random effects included block, the interaction of block and treatment and error. Baseline data for pruritic behavior (day-1) were used as covariate in the analysis of pruritic behavior. Least squares means were used as estimates of treatment means. Standard errors of least squares means were estimated and 90% confidence intervals were constructed. Geometric means were computed from the least squares means for log-transformed data. A priori contrasts were used to assess treatment. Treatment differences were assessed at the 10% level of significance (P≦0.10).

## CNS(=O)(=O)C[C@H]1CC[C@H](N(C)c2ncnc3[nH]ccc23)CC1 [Example 1a, N-methyl-1-{trans-4-[methyl(7H-pyrrolo[2,3-d]pyrimidin-4-yl)amino]cyclohexyl}methanesulfonamide]
[1]; whole blood from beagles
  pIC50: 7.18
[1]; whole blood from mixed breed dogs
  pIC50: 6.86

## CNS(=O)(=O)C[C@H]1CC[C@H](N(C)c2ncnc3[nH]ccc23)CC1.O=C(O)/C=C\C(=O)O [Example 1b, N-methyl-1-{trans-4-[methyl(7H-pyrrolo[2,3-d]pyrimidin-4-yl)amino]cyclohexyl}methanesulfonamide maleic acid salt]
Flea allergic dogs; 0.25 mg/kg orally twice a day, days 1, 4 and 12
  pruritus as compared to placebo (seconds of pruritus per 4 hour recording): Significant reductions
Flea allergic dogs; 0.5 mg/kg orally twice a day for 28 days, flea allergic dogs
  Lesions and erythema (VAS): significantly reduced
Flea allergic dogs; 0.5 mg/kg orally twice a day, days 1 and 20
  pruritus as compared to placebo (seconds of pruritus per 4 hour recording): Significant reductions

## CN(c1ncnc2[nH]ccc12)[C@H]1CC[C@H](CS(=O)(=O)NC2CCC2)CC1 [Example 2, N-cyclobutyl-1-{trans-4-[methyl(7H-pyrrolo[2,3-d]pyrimidin-4-yl)amino]cyclohexyl}methanesulfonamide]
[1]; whole blood from beagles
  pIC50: 6.39
